Measurements: US9676715B2, “Bis-indolic derivatives, a process for preparing the same and their uses as a drug” (UNIVERSITE JOSEPH FOURIER, priority 2011, dated 2017)
Converted amounts (≈) assume the structure as drawn.

Experiments:
[1] = tested on: S. epidermidis CIP 103627; assay: MIC, microdilution method (9.1); format: cell-based, Staphylococcus epidermidis; conditions: Staphylococcus epidermidis, CIP103627, read after 18 h, read-out: MIC
Description: (§1) The microdilution method recommended by the Clinical and Laboratory Standard Institute [M07-A8, Vol. 29, No. 2] was used. The activity of indolic compounds was tested against 29 bacterial strains belonging to 17 different species and 12 different genera (Staphylococcus, Streptococcus, Enterococcus, Listeria, Bacillus, Haemophilus, Escherichia, Klebsiella, Enterobacter, Serratia, Pseudomonas, and Acinetobacter). Bacterial inocula were prepared in Mueller Hinton broth (MH2, bioMérieux, Marcy L'Etoile, France), supplemented with 10% sheep blood for fastidious species (i.e., Streptococcus pneumoniae and Haemophilus influenzae). They were dispensed in 96 well microtiter plates (5×10^5 CFU/ml of final inoculum). Indolic compounds were added to the wells as to obtain two-fold serial concentrations (0.50-128 mg/L of final concentrations). Plates were incubated at 37° C. in ambient air, or at 37° C. in 5% CO2 enriched atmosphere for fastidious species. […] Drug-free cultures served as growth controls. Cultures receiving gentamicin, ciprofloxacin or cefotaxime served as positive controls.

[2] = tested on: S. epidermidis ATCC 12228; assay: MIC, microdilution method (9.1); format: cell-based, Staphylococcus epidermidis; conditions: Staphylococcus epidermidis, ATCC12228, read after 18 h, read-out: MIC
Description: as §1

S. epidermidis CIP 81.55 = assay: MIC, microdilution method (9.1); format: cell-based, Staphylococcus epidermidis; conditions: Staphylococcus epidermidis, CIP81, read after 18 h, read-out: MIC
Description: as §1

[3] = tested on: MRC5 (human lung fibroblast); assay: In vitro cytotoxicity; format: cell-based; conditions: read-out: % of cellular growth inhibition; for inhibition at 10 µM: 10^−5 M; for inhibition at 1 µM: 10^−6 M
Description: (§2) In vitro cytotoxicity was assayed on three cell lines—KB (human mouth carcinoma), MCR5 (human lung fibroblast) and HCT116 (human colon tumor). Results are presented in table IV as % of cellular growth inhibition in presence of 10^−5 M and 10^−6 M of the tested bis-indolic derivatives.

[4] = tested on: HCT116 (human colon tumor); assay: In vitro cytotoxicity; format: cell-based; conditions: read-out: % of cellular growth inhibition; for inhibition at 10 µM: HCT-116, 10^−5 M; for inhibition at 1 µM: HCT-116, 10^−6 M
Description: as §2

[5] = tested on: KB (human mouth carcinoma); assay: In vitro cytotoxicity; format: cell-based; conditions: read-out: % of cellular growth inhibition; for inhibition at 10 µM: 10^−5 M; for inhibition at 1 µM: 10^−6 M
Description: as §2

[6] = tested on: S. aureus ATCC 106414 (VISA); assay: MIC, microdilution method (9.1); format: cell-based, Staphylococcus aureus; conditions: Staphylococcus aureus, read after 18 h, read-out: MIC
Description: as §1

S. aureus ATCC 25923 = assay: MIC, microdilution method (9.1); format: cell-based, Staphylococcus aureus; conditions: Staphylococcus aureus, ATCC25923, read after 18 h, read-out: MIC
Description: as §1

S. aureus SA-1199B = assay: MIC, microdilution method (9.1); format: cell-based, Staphylococcus aureus; conditions: Staphylococcus aureus, SA1199B, 18 h
Description: as §1

[7] = tested on: S. aureus ATCC 33592 (MRSA); assay: MIC, microdilution method (9.1); format: cell-based, Staphylococcus aureus; conditions: Staphylococcus aureus, read after 18 h, read-out: MIC
Description: as §1

S. aureus ATCC 9144 = assay: MIC, microdilution method (9.1); format: cell-based, Staphylococcus aureus; conditions: Staphylococcus aureus, ATCC9144, read after 18 h, read-out: MIC
Description: as §1

S. aureus CIP 65.6 = assay: MIC, microdilution method (9.1); format: cell-based, Staphylococcus aureus; conditions: Staphylococcus aureus, CIP65, read after 18 h, read-out: MIC
Description: as §1

[8] = tested on: S. aureus CIP 65.25 (MRSA); assay: MIC, microdilution method (9.1); format: cell-based, Staphylococcus aureus; conditions: Staphylococcus aureus, read after 18 h, read-out: MIC
Description: as §1

S. aureus ATCC 6538 = assay: MIC, microdilution method (9.1); format: cell-based, Staphylococcus aureus; conditions: Staphylococcus aureus, ATCC6538, read after 18 h, read-out: MIC
Description: as §1

S. aureus ATCC 29213 = assay: MIC, microdilution method (9.1); format: cell-based, Staphylococcus aureus; conditions: Staphylococcus aureus, ATCC29213, read after 18 h, read-out: MIC
Description: as §1

S. aureus CIP 103428 = assay: MIC, microdilution method (9.1); format: cell-based, Staphylococcus aureus; conditions: Staphylococcus aureus, CIP103428, read after 18 h, read-out: MIC
Description: as §1

| SMILES | melting point [°C] | MIC [1] [µg/mL] | MIC [2] [µg/mL] | MIC (S. epidermidis CIP 81.55) [µg/mL] | inhibition at 10 µM [3] [%] | inhibition at 1 µM [3] [%] | inhibition at 10 µM [4] [%] | inhibition at 1 µM [4] [%] | inhibition at 10 µM [5] [%] | inhibition at 1 µM [5] [%] | MIC [6] [µg/mL] | MIC (S. aureus ATCC 25923) [µg/mL] | MIC (S. aureus SA-1199B) [µg/mL] | MIC [7] [µg/mL] | MIC (S. aureus ATCC 9144) [µg/mL] | MIC (S. aureus CIP 65.6) [µg/mL] | MIC [8] [µg/mL] | MIC (S. aureus ATCC 6538) [µg/mL] | MIC (S. aureus ATCC 29213) [µg/mL] | MIC (S. aureus CIP 103428) [µg/mL] |
| --- | --- | --- | --- | --- | --- | --- | --- | --- | --- | --- | --- | --- | --- | --- | --- | --- | --- | --- | --- | --- |
| O=C(NC(CO)c1c[nH]c2ccc(Br)cc12)c1c[nH]c2ccc(Br)cc12 (stereo not shown) [Compound 13, 5-Bromo-N-(1-(5-bromo-1H-indol-3-yl)-2-hydroxyethyl)-1H-indole-3-carboxamide] | 155 | 4 (≈ 8.38 µM) | 4 (≈ 8.38 µM) | 4 (≈ 8.38 µM) | 6 ± 1 | 0 | 12 ± 5 | 0 | 1 ± 4 | 0 | 4 (≈ 8.38 µM) | 4 (≈ 8.38 µM) | 8 (≈ 16.8 µM) | 4 (≈ 8.38 µM) | 4 (≈ 8.38 µM) | 4 (≈ 8.38 µM) | 4 (≈ 8.38 µM) | 4 (≈ 8.38 µM) | 4 (≈ 8.38 µM) | 4 (≈ 8.38 µM) |
| COC(=O)C(NC(=O)c1c[nH]c2ccc(Br)cc12)c1c[nH]c2ccc(Br)cc12 (stereo not shown) [Compound 11, Methyl 2-(5-bromo-1H-indol-3-yl)-2-(5-bromo-1H-indole-3-carboxamido)acetate] | 126 | 4 (≈ 7.92 µM) | 4 (≈ 7.92 µM) | 4 (≈ 7.92 µM) | 28 ± 9 | 0 | 51 ± 5 | 0 | 51 ± 1 | 0 | 4 (≈ 7.92 µM) | 4 (≈ 7.92 µM) | 4 (≈ 7.92 µM) | 4 (≈ 7.92 µM) | 4 (≈ 7.92 µM) | 4 (≈ 7.92 µM) | 4 (≈ 7.92 µM) | 4 (≈ 7.92 µM) | 4 (≈ 7.92 µM) | 4 (≈ 7.92 µM) |
